Laboratory results taken from PubChem BioAssay (NCI).
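Dose response: 5 concentrations. Exposure: 48 h. Format: 96-well plates. Endpoint: linear interpolation; highest concentration if not reached. GI50 = concentration required for 50% inhibition of growth. The concentration for full growth arrest is given as TGI.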

Legend:
Experiment in all cases: NCI-60 cell line screen, 48 h
[1] = system: SK-OV-3 ovarian
[2] = system: CAKI-1 renal
[3] = system: HCT-116 colon
[4] = system: KM12 colon
[5] = system: OVCAR-5 ovarian
[6] = system: SN12C renal
[7] = system: A498 renal
[8] = system: MOLT-4 leukemia
[9] = system: SK-MEL-28 melanoma
[10] = system: LOX IMVI melanoma
[11] = system: IGROV1 ovarian
[12] = system: SK-MEL-2 melanoma
[13] = system: SF-268 CNS
[14] = system: M14 melanoma
[15] = system: DU-145 prostate
[16] = system: NCI/ADR-RES ovarian
[17] = system: UACC-257 melanoma
[18] = system: HCC-2998 colon
[19] = system: T-47D breast
[20] = system: SW-620 colon
[21] = system: HS 578T breast
[22] = system: NCI-H23 lung
[23] = system: UACC-62 melanoma
[24] = system: PC-3 prostate
[25] = system: SF-539 CNS
[26] = system: 786-0 renal
[27] = system: HOP-62 NSCLC
[28] = system: U251 CNS
[29] = system: HT29 colon
[30] = system: MALME-3M melanoma
[31] = system: SNB-75 CNS
[32] = system: MDA-MB-231 breast
[33] = system: RXF 393 renal
[34] = system: UO-31 renal
[35] = system: RPMI-8226 leukemia
[36] = system: MDA-MB-435
[37] = system: OVCAR-8 ovarian
[38] = system: MCF7 breast
[39] = system: NCI-H460 lung
[40] = system: ACHN renal
[41] = system: SNB-19 CNS
[42] = system: COLO 205 colon
[43] = system: NCI-H522 lung
[44] = system: NCI-H226 lung
[45] = system: EKVX NSCLC
[46] = system: SK-MEL-5 melanoma
[47] = system: HOP-92 NSCLC
[48] = system: OVCAR-4 ovarian
[49] = system: HL-60(TB) leukemia
[50] = system: CCRF-CEM leukemia
[51] = system: HCT-15 colon
[52] = system: SF-295 CNS
[53] = system: OVCAR-3 ovarian
[54] = system: K-562 leukemia
[55] = system: TK-10 renal
[56] = system: A549 NSCLC
[57] = system: BT-549 breast

O=c1c2cc(I)ccc2nc(-c2cccs2)n1-c1ccc(S(=O)(=O)Nc2nccs2)cc1
GI50 [1]: 66.6 µM
TGI [1]: > 100 µM
GI50 [2]: 21.1 µM
TGI [2]: 52 µM
GI50 [3]: 37.1 µM
TGI [3]: > 100 µM
GI50 [4]: 39.2 µM
TGI [4]: > 100 µM
GI50 [5]: 35.3 µM
TGI [5]: > 100 µM
GI50 [6]: 37.2 µM
TGI [6]: > 100 µM
GI50 [7]: 22.7 µM
TGI [7]: 71.5 µM
GI50 [8]: 61.4 µM
TGI [8]: > 100 µM
GI50 [9]: 78.5 µM
TGI [9]: > 100 µM
GI50 [10]: 28.9 µM
TGI [10]: 82.8 µM
GI50 [11]: 33.2 µM
TGI [11]: > 100 µM
GI50 [12]: 33.2 µM
TGI [12]: > 100 µM
GI50 [13]: 29.6 µM
TGI [13]: > 100 µM
GI50 [14]: > 100 µM
TGI [14]: > 100 µM
GI50 [15]: 27.4 µM
TGI [15]: > 100 µM
GI50 [16]: 88.1 µM
TGI [16]: > 100 µM
GI50 [17]: 41.8 µM
TGI [17]: > 100 µM
GI50 [18]: 29.5 µM
TGI [18]: 62.5 µM
GI50 [19]: 34.4 µM
TGI [19]: > 100 µM
GI50 [20]: 31.3 µM
TGI [20]: > 100 µM
GI50 [21]: 26.2 µM
TGI [21]: 84.1 µM
GI50 [22]: 22.5 µM
TGI [22]: > 100 µM
GI50 [23]: 22.8 µM
TGI [23]: 52.1 µM
GI50 [24]: 38.4 µM
TGI [24]: > 100 µM
GI50 [25]: 22.6 µM
TGI [25]: 44.5 µM
GI50 [26]: 54.1 µM
TGI [26]: > 100 µM
GI50 [27]: 42.8 µM
TGI [27]: > 100 µM
GI50 [28]: 27.2 µM
TGI [28]: 81.7 µM
GI50 [29]: > 100 µM
TGI [29]: > 100 µM
GI50 [30]: 36.7 µM
TGI [30]: 99.9 µM
GI50 [31]: > 100 µM
TGI [31]: > 100 µM
GI50 [32]: 25.1 µM
TGI [32]: 73.5 µM
GI50 [33]: 40 µM
TGI [33]: > 100 µM
GI50 [34]: 22.6 µM
TGI [34]: 51.6 µM
GI50 [35]: 38.4 µM
TGI [35]: > 100 µM
GI50 [36]: 36.8 µM
TGI [36]: > 100 µM
GI50 [37]: 32 µM
TGI [37]: 98 µM
GI50 [38]: 41.7 µM
TGI [38]: > 100 µM
GI50 [39]: 34.2 µM
TGI [39]: > 100 µM
GI50 [40]: 41.3 µM
TGI [40]: > 100 µM
GI50 [41]: 41.9 µM
TGI [41]: > 100 µM
GI50 [42]: 33.5 µM
TGI [42]: > 100 µM
GI50 [43]: 25.9 µM
TGI [43]: 76 µM
GI50 [44]: 24.9 µM
TGI [44]: 74.8 µM
GI50 [45]: 20.8 µM
TGI [45]: 55.5 µM
GI50 [46]: 19.7 µM
TGI [46]: 44.2 µM
GI50 [47]: 28.8 µM
TGI [47]: > 100 µM
GI50 [48]: 86.9 µM
TGI [48]: > 100 µM
GI50 [49]: 50.4 µM
TGI [49]: > 100 µM
GI50 [50]: 38.4 µM
TGI [50]: > 100 µM
GI50 [51]: 42.6 µM
TGI [51]: > 100 µM
GI50 [52]: 27.6 µM
TGI [52]: > 100 µM
GI50 [53]: 25.3 µM
TGI [53]: 83.8 µM
GI50 [54]: 36.6 µM
TGI [54]: > 100 µM
GI50 [55]: 35.2 µM
TGI [55]: > 100 µM
GI50 [56]: 49.1 µM
TGI [56]: > 100 µM
GI50 [57]: 22.3 µM
TGI [57]: 60.6 µM
